According to US6949519B2, “Macrolide solvates” (Sandoz AG, priority 2000, dated 2005):

How the values were obtained:
Format in all cases: physicochemical
[1] = Water content (K. Fischer) and X-ray powder diffraction pattern at room temperature under normal air humidity conditions
Protocol: In the following examples all temperatures are in degree Centigrade and are uncorrected. The X-ray powder diffraction pattern of azithromycin in the form of a monohydrate obtained according to the following example corresponds to that of azithromycin in the form of a monohydrate. […] Water content (% w/w) is determined by the K. Fischer
To a suspension of 20 g of azithromycin in 83 ml of water, HCl is added until dissolution occurs. The solution obtained is filtrated, in order to remove undissolved particles, and the filtrate obtained is added dropwise to 103 ml of water whilst adjusting the pH to 10 to 11 by addition of 20% NaOH at a temperature of ca. 55° C. A solid precipitates, is filtrated off, washed and dried until a water content of 4.0 to 6.5% is achieved. 18.4 g of azithromycin in the form of a monohydrate in crystalline form are obtained. Water content: 6.0% Water content after 2 days at room temperature under normal air humidity conditions: 6.3% Water content after 13 days at room temperature under normal air humidity conditions: 6.3%

[2] = Stability and comparison example: samples set out for 6 weeks at 75% relative humidity at elevated temperature; potency and degradation by HPLC, water by Karl Fischer, X-ray powder diffraction; settings: 6 weeks under normal air humidity conditions at elevated temperatures
[3] = as above; settings: for Degradation (%) / POTENCY (%): HPLC, anhydrous basis; for POTENCY (%): 75% relative humidity, temperature of 400 (so in the source); for WATER (%): Karl Fischer
Protocol: • 5.3% of water, and • 2.8% of water are set out for 6 weeks to an environment having a relative humidity of 75% at a temperature of 400. Potency (content) of azithromycin, azithromycin degradation and water content in the samples are determined in week 0, week 2, week 4 and week 6. Potency and degradation are determined on azithromycin anhydrous basis by HPLC. The water content is determined by the Karl Fischer method. Results are Obtained • for azithromycin comprising 5.3% of water as set out in TABLE 1 below, • for azithromycin comprising 2.8% of water as set out in TABLE 2 below:
The potency of azithromycin in % of each sample within the corresponding time period is set out in TABLE 1 and TABLE 2 under “Potency (%)”.
The degradation of azithromycin in % of each sample within the corresponding time period is set out in TABLE 1 and TABLE 2 under “Degradation (%).
The water content in % of each sample within the corresponding time period is indicated in TABLE 1 and TABLE 2 under “Water (%)”.

Compound	Degradation (%) ([3]; week 6, 75% humidity, 40° C.)	POTENCY (%) ([3]; week 0)	WATER (%) ([3]; week 0)	Degradation (%) ([3]; week 2, 75% humidity, 40° C.)	WATER (%) ([3]; week 2, 75% humidity, 40° C.)	Degradation (%) ([3]; week 4, 75% humidity, 40° C.)	WATER (%) ([3]; week 4, 75% humidity, 40° C.)	WATER (%) ([3]; week 6, 75% humidity, 40° C.)	POTENCY (%) ([3]; week 6)	also measured
CC[C@H]1OC(=O)[C@H](C)[C@@H](O[C@H]2C[C@@](C)(OC)[C@@H](O)[C@H](C)O2)[C@H](C)[C@@H](O[C@@H]2O[C@H](C)C[C@H](N(C)C)[C@H]2O)[C@](C)(O)C[C@@H](C)CN(C)[C@H](C)[C@@H](O)[C@]1(C)O [Example, 9-deoxo-9a-aza-9a-methyl-9a-homoerythromycin A]	–	–	–	–	–	–	–	–	–	Water content ([1]; after 2 days at room temperature under normal air humidity conditions): 6.3%; Water content ([1]; after 13 days at room temperature under normal air humidity conditions): 6.3%; Water content ([1]; as obtained after drying, % w/w, K. Fischer): 6.0%; X-ray diffraction powder pattern ([1]; on day 1, on day 2 and on day 13): corresponds to the X-ray diffraction powder pattern of azithromycin in the form of a monohydrate; Crystallinity and X-ray powder diffraction pattern on storage [2]: maintains its crystallinity and its X-ray powder diffraction pattern; Degradation products on storage [2]: contains substantially no degration products
CC[C@H]1OC(=O)[C@H](C)[C@@H](O[C@H]2C[C@@](C)(OC)[C@@H](O)[C@H](C)O2)[C@H](C)[C@@H](O[C@@H]2O[C@H](C)C[C@H](N(C)C)[C@H]2O)[C@](C)(O)C[C@@H](C)CN(C)[C@H](C)[C@@H](O)[C@]1(C)O [azithromycin according to the present invention] [9-deoxo-9a-aza-9a-methyl-9a-homoerythromycin A]	~0.1	–	–	–	–	–	–	–	–	Water content compared with week 0 ([3]; 40° C., 75% humidity, within 4 weeks and even 6 weeks): remains substantially the same as in week 0; Time for which the X-ray powder diffraction pattern (crystalline structure) is maintained ([3]; normal air humidity conditions, even at elevated temperatures): at least 2 weeks
CC[C@H]1OC(=O)[C@H](C)[C@@H](O[C@H]2C[C@@](C)(OC)[C@@H](O)[C@H](C)O2)[C@H](C)[C@@H](O[C@@H]2O[C@H](C)C[C@H](N(C)C)[C@H]2O)[C@](C)(O)C[C@@H](C)CN(C)[C@H](C)[C@@H](O)[C@]1(C)O [azithromycin comprising 2.8% of water, 9-deoxo-9a-aza-9a-methyl-9a-homoerythromycin A, reference compound]	6.6	99.7	2.8	2.5	2.8	6.1	3.3	3.6	91.6	Degradation (%) ([3]; week 2, 75% humidity, 40° C., listed as azithromycin in the form of a monohydrate having a water content of 2.8% to 3.6%): 2.5%; Degradation (%) ([3]; week 6, 75% humidity, 40° C., listed as azithromycin in the form of a monohydrate having a water content of 2.8% to 3.6%): ~7%
CC[C@H]1OC(=O)[C@H](C)[C@@H](O[C@H]2C[C@@](C)(OC)[C@@H](O)[C@H](C)O2)[C@H](C)[C@@H](O[C@@H]2O[C@H](C)C[C@H](N(C)C)[C@H]2O)[C@](C)(O)C[C@@H](C)CN(C)[C@H](C)[C@@H](O)[C@]1(C)O [azithromycin comprising 5.3% of water, 9-deoxo-9a-aza-9a-methyl-9a-homoerythromycin A]	0.1	99.8	5.3	0.1	5.3	0.1	5.3	5.3	99.5	POTENCY (%) ([3]; week 2): 98.9%; POTENCY (%) ([3]; week 4): 99.5%
